Reference: patent US9682026B2, “Oral care product and methods of use and manufacture thereof” (Colgate-Palmolive Company, priority 2008, dated 2017)

Test system: S. sanguis
Assay: Ammonia production by S. sanguis at pH 4.0
Assay type: cell-based
Conditions: 5 millimolar amino acid, 0.1% sucrose, pH 4.0, 37° C., 30 minutes; mean of 6 trials
Description: An overnight culture of S. sanguis was grown at 37° C. in trypticase soy broth (Becton Dickinson, Sparks, Md.). The culture was centrifuged at 5,000 rpm for 5 minutes at 1 milliliter at a time into preweighed tubes in order to accumulate approximately 5 milligrams of wet pellet weight. The pellet was then resuspended into 20 millimolar potassium phosphate buffer (J T Baker, Phillipsburg, N.J.), pH 4.0, to simulate a stressed environment for the bacterial cell where ammonia would be produced for survival. The final concentration was 5 milligram per milliliter. To this final concentration, a 5 millimolar final concentration of L-arginine, L-citrulline, or L-ornithine was added along with a 0.1% final concentration of sucrose (VWR, West Chester, Pa.). This mixture was then incubated at 37° C. in a shaking water bath for 30 minutes before ammonia production was determined.
In order to analyze for ammonia, an Ammonia Assay kit was used from Diagnostic Chemicals Limited (Oxford, Conn.). The intended use of this specific kit is for the in vitro quantification of ammonia in plasma, but the procedure was modified in order to determine and quantify the ammonia production in plaque and/or bacteria.

Going from `N=C(N)NCCC[C@H](N)C(=O)O` [L-Arginine, L-arginine] to `NC(=O)NCCC[C@H](N)C(=O)O` [L-Citrulline, L-citrulline], the “Ammonia (ppm), Mean” value falls from 1.06 ppm to 0.951 ppm.

With `NCCC[C@H](N)C(=O)O` [L-Ornithine, L-ornithine] the “Ammonia (ppm), Mean” value was 0.134 ppm.
